{"source": "paper PMC12436592", "about": "(Nature Communications, 2025)", "molecular_target": "T1, hP2X3R (Homo sapiens, UniProt P56373, S15V)", "T1 construct": "expressed in transfected cells; host or cells: 1321N1 astrocytoma cells, retroviral expression system", "T1 sequence (P56373 1-397 S15V)": "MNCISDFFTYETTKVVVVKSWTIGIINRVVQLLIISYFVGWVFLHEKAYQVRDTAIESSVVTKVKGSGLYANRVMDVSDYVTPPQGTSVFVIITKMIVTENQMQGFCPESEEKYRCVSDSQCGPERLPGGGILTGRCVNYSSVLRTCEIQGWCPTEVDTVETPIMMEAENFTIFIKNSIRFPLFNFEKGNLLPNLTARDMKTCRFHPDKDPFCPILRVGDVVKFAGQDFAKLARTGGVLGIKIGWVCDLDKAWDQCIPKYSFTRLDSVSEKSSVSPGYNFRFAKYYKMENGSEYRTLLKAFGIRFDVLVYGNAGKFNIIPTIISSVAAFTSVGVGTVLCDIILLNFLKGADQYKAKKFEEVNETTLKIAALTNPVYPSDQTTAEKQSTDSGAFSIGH", "experiment": "Calcium influx assay, 1321N1 astrocytoma cells, ATP EC80", "type": "cell-based", "excerpt": "For 1321N1 astrocytoma cells stably expressing the human, rat, or mouse P2X7Rs, or hP2X2Rs or hP2X4Rs, the fluorescent Ca^2+-chelating dye Fluo-4 acetoxymethyl ester (Fluo-4 AM, Thermo Fisher Scientific, Dreieich, Germany) was used. For 1321N1 astrocytoma cell lines recombinantly expressing the hP2X1Rs or hP2X3Rs, the FLIPR® Calcium 5 Assay Kit (Molecular Devices, San José, CA, USA) was employed. Human, rat, and mouse P2X7Rs as well as hP2X1Rs, hP2X2Rs, hP2X3Rs, and hP2X4Rs were recombinantly expressed in 1321N1 astrocytoma cells using a retroviral expression system[72]–[74].\nOn the first day, 45,000 cells per well (30,000 cells for the human P2X3 receptor-expressing cells) were seeded into a 96-well polystyrene microplate with a black, flat bottom in a final volume of 200 µL. After overnight incubation at 37 °C and 10% CO2 (5% CO2 for the human P2X3R-expressing cell line), the medium was removed by inverting the plate, and the cells were loaded with dye solution. Hanks’ balanced salt solution (HBSS, Thermo Fisher Scientific, Dreieich, Germany) was used as the assay buffer for human P2X1R, P2X2R, P2X3R, and P2X4R. For the P2X7Rs, a different assay buffer was used: 150 mM sodium-glutamate, 5 mM KCl, 0.5 mM CaCl2, 0.1 mM MgCl2, 10 mM D-glucose, 25 mM 4-(2-hydroxyethyl)-1-piperazineethanesulfonic acid (HEPES), pH 7.4. The dye solutions were freshly prepared. The Fluo-4 AM solution contained 3 µM of Fluo-4 AM in assay buffer and 1% of the non-ionic detergent Pluronic F-127® (Sigma-Aldrich, Taufkirchen, Germany). The Calcium 5 dye, used for hP2X1Rs and hP2X3Rs, was prepared in HBSS buffer. Cells were loaded with Fluo-4 AM and incubated for 1 h at room temperature with gentle shaking (100 rpm), while those loaded with the Calcium 5 dye were incubated for 1 h at 37 °C. After incubation, the dye solution was carefully removed from the plate, and buffer was added to the cells for the evaluation of agonists. […] The agonist solution was prepared in a 96-well transparent plate, obtaining the respective EC80 values. As a control, assay buffer without the test compound was used. After 30 min of incubation with antagonist, the plates were measured using a fluorescence imaging plate reader NOVOstar (BMG Labtech GmbH, Offenburg, Germany) at an excitation wavelength of 485 nm and an emission wavelength of 520 nm, for 30 s at 0.4 s intervals. Calcium influx measurements were then initiated by automatic addition of 20 µL of agonist solution by the plate reader’s pipetting device. Data were analyzed using Microsoft Excel and GraphPad Prism (Version 8.0, San Diego, CA, USA). EC80 and IC50 values were calculated using nonlinear regression with a sigmoidal dose-response equation.", "note": "Several values for one entry are separate records, joined by “and”; a condition that tells them apart may be missing. Equal values may be shown once.", "data": [{"compound": "O=C(NNc1ccccc1Cl)C12CC3CC(CC(C3)C1)C2", "note": "[UB-ALT-P30, reference compound]", "values": [{"measurement": "inhibition at 10 µM", "setting": "1321-N1, read-out: % inhibition ± SD at 10 μM, hP2X3R, 10 μM antagonist, ATP 100 nM", "result": "86 ± 9", "unit": "%"}, {"measurement": "hP2X3R inhibition at 10 μM", "setting": "Log(c) M -5, single values, 10 µM, in % (unit assumed)", "result": "94.9053 and 93.1871 and 60.8032 and 85.3564 and 91.979 and 90.698 and 90.7697 and 79.3438"}, {"measurement": "hP2X3R inhibition, IC50 curve", "setting": "Log(c) M -6, in %", "result": "58.8384 and 67.0023 and 59.1901 and 77.3652"}, {"measurement": "fold more potent at the hP2X7R versus the hP2X3R", "setting": "calcium influx IC50 ratio", "result": 40, "unit": "fold"}, {"measurement": "IC50", "setting": "calcium influx, estimated", "result": "707 ± 185", "unit": "nM"}]}]}
